Data published in PMC11345830, “Exploration of Hydrazide-Based HDAC8 PROTACs for the Treatment of Hematological Malignancies and Solid Tumors” (Journal of Medicinal Chemistry, 2024).
Read-outs that look alike come from different tables or passages of the source.

Key:
HDAC4 = biological target: T1, HDAC4 (Homo sapiens, UniProt P56524); assay: HDAC4 level in Jurkat cells, Western blot; type: cell-based; settings: 6 h
T1 construct: endogenous in cells; host or cells: Jurkat

HCT116 cells = assay: Apoptosis assay (Annexin V-FITC/PI flow cytometry), HCT116; type: cell-based; set-up: Q1 (flow cytometry quadrant) / Q2 (flow cytometry quadrant) / Q3 (flow cytometry quadrant) / Q4 (flow cytometry quadrant): unit not given here; settings: 48 h
Description: (§1) The cell apoptosis assay was performed using eBioscience Annexin V-FITC/PI Apoptosis Detection Kit (Thermo Fisher Scientific, Carlsbad, CA, USA). Jurkat cells (5 × 10^5) and HCT116 cells (3 × 10^5) were treated with different concentrations of test compounds for 24 or 48 h. Cells were harvested after incubation, washed twice in cold PBS, centrifuged, and resuspended in 1X annexin-binding buffer. According to the manufacturer’s instructions, cells were incubated with Annexin V and Propidium iodide (PI) sequentially. All samples were analyzed by NovoCyte Quanteon Flow Cytometer (Agilent Technologies, CA, USA).

Jurkat cells [1] = assay: Apoptosis assay (Annexin V-FITC/PI flow cytometry), Jurkat; type: cell-based; settings: 24 and 48 h
Description: as §1

Jurkat cells [2] = assay: Cell cycle analysis, Jurkat; type: cell-based; settings: 48 h, control group 43.5%
Description: Jurkat cells (5 × 10^5) and HCT116 cells (3 × 10^5) were seeded on 6-well plates. The next day, cells were treated with indicated concentrations of compounds for 48 h. Cells were harvested after incubation, washed twice in cold PBS, centrifuged, and stained with a solution containing 20 μg/mL of Propidium iodide (PI) and 0.1% (v/v) Triton-X100 for 15 min at room temperature, followed by detection with NovoCyte Quanteon Flow Cytometer (Agilent Technologies, CA, USA).

Jurkat cells [3] = assay: Lipid peroxidation detection (BODIPY 581/591 C11), Jurkat; type: cell-based; settings: 10 μM, 24 h
Description: Jurkat cells (5 × 10^5), HCT116 cells (3 × 10^5) and THP-1 cells (5 × 10^5) were seeded on 6-well plates. The next day, cells were treated with indicated concentrations of compounds for 24 or 48 h. Then, cells were stained with 1.3 μM of BODIPY 581/591 C11 (Invitrogen, D3861) for another 1 h at 37 °C. Later, cells were harvested and washed three times with ice-cold PBS, followed by resuspended in FACS buffer (1% BSA in PBS). Lipid peroxidation was determined by NovoCyte Quanteon Flow Cytometer (Agilent Technologies, CA, USA).

[4] = test system: acetyl-histone H3 (Ac-HH3); assay: Ac-HH3 level in HCT116 cells, Western blot; type: cell-based; settings: 6 h
IKZF1 = biological target: T2, IKZF1 (Homo sapiens, UniProt Q13422); assay: IKZF1 level in Jurkat cells, Western blot; type: cell-based; settings: 6 h
T2 construct: endogenous in cells; host or cells: Jurkat

HDAC6 = biological target: T3, HDAC6 (Homo sapiens, UniProt Q9UBN7); assay: HDAC6 level in Jurkat cells, Western blot; type: cell-based; set-up: endogenous in cells; host or cells: Jurkat; settings: 6 h
T3 sequence (Q9UBN7 1-1215): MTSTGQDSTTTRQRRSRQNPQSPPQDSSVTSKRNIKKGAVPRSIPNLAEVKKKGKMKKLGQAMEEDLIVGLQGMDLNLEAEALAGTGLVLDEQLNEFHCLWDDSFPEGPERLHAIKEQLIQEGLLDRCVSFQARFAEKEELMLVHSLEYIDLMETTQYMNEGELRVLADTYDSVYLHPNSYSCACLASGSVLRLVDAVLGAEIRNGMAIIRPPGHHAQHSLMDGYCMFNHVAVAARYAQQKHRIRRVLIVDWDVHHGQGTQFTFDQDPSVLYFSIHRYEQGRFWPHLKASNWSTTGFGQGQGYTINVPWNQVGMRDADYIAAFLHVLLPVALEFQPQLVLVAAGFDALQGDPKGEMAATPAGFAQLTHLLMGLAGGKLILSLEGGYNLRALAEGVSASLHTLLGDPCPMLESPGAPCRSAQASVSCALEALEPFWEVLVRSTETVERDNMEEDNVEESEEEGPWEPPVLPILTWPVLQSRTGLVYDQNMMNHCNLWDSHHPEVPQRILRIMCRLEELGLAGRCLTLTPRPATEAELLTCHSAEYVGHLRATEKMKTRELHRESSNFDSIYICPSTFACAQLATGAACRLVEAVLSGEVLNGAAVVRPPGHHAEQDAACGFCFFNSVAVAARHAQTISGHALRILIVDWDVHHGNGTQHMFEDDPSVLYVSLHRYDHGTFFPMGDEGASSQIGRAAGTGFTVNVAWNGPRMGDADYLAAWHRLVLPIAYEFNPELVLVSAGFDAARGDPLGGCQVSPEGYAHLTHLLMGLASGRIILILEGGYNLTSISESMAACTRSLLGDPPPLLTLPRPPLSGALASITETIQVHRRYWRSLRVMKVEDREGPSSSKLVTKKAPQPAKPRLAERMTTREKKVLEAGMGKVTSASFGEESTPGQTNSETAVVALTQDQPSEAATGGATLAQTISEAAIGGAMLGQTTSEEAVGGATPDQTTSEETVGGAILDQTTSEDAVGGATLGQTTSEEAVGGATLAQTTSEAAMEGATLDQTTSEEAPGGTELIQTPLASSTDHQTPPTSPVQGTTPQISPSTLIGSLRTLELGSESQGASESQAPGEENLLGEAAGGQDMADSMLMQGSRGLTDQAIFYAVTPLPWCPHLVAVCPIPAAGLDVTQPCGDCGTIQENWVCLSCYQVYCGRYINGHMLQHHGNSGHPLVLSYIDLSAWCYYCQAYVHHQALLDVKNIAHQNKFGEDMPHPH

[5] = test system: acetyl-histone H3 (Ac-HH3); assay: Ac-HH3 level in Jurkat cells, Western blot; type: cell-based; settings: 6 h
acetyl-SMC3 (Ac-SMC3) = assay: Ac-SMC3 level in Jurkat cells, Western blot; type: cell-based; settings: 6 h
STAT3 = settings: 24 h
Excerpt: We also explored a potential by-stander effect of HDAC8 degradation. It has been reported that HDAC8 can form a corepressor complex with STAT3 and release of the HDAC8 corepressor complex can recruit p300, Sp3, and other factors that activate gene transcription in colon cancer HCT116 cells.[20]

T1 sequence (P56524 whole entry): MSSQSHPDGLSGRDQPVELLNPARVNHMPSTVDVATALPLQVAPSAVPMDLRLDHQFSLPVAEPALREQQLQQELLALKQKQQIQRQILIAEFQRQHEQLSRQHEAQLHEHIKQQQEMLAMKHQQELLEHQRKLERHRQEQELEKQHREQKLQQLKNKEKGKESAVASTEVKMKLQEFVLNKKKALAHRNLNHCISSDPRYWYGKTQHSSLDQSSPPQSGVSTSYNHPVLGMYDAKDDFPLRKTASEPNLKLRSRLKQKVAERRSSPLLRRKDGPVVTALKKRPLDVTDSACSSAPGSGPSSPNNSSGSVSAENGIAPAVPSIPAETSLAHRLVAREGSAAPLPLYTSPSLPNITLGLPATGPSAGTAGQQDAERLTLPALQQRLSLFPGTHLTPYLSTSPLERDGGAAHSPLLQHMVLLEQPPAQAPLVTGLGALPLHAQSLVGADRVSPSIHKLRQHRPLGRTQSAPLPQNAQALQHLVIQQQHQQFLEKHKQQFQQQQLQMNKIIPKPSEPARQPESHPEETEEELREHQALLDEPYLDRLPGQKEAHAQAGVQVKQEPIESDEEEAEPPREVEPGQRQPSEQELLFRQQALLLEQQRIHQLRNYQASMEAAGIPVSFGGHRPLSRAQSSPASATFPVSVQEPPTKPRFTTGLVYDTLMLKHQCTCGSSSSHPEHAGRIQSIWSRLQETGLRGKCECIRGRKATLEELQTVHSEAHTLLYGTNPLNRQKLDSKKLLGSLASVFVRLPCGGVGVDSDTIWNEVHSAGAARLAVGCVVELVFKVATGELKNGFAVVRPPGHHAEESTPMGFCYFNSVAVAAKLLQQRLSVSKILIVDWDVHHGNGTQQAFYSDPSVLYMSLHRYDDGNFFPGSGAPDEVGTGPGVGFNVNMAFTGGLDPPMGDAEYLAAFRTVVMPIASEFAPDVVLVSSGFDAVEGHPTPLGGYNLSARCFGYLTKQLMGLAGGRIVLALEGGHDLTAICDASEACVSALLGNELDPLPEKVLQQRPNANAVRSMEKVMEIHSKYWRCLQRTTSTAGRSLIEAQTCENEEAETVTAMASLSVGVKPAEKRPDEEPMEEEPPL
T2 sequence (Q13422 whole entry): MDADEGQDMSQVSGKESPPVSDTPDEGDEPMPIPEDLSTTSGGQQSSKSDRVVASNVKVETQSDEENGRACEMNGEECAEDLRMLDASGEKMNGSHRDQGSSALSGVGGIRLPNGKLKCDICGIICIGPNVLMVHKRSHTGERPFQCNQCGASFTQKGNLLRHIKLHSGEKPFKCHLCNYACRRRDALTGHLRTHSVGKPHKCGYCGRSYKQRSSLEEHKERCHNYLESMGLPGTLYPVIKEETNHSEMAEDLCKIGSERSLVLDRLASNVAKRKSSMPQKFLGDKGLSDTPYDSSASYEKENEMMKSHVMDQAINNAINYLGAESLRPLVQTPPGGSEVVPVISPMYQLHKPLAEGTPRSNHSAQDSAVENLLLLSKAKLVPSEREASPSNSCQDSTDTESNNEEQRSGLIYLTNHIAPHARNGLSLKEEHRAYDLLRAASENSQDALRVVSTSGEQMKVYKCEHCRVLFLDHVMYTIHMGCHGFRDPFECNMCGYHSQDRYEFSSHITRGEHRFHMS

SMILES: CCCCCCNNC(=O)c1ccc(CNC(=O)CN2CCC(c3ccc(NC4CCC(=O)NC4=O)cc3)CC2)cc1 (stereo not shown) [Z16, 2-(4-(4-((2,6-Dioxopiperidin-3-yl)amino)phenyl)piperidin-1-yl)-N-(4-(2-hexylhydrazine-1-carbonyl)benzyl)acetamide]
- HDAC4 degradation (in words) (HDAC4): no obvious
- Q1 (flow cytometry quadrant) (HCT116 cells; 1.1 μM): 4.38
- Q2 (flow cytometry quadrant) (HCT116 cells; 1.1 μM): 5.93
- Q3 (flow cytometry quadrant) (HCT116 cells; 1.1 μM): 10.3
- Q4 (flow cytometry quadrant) (HCT116 cells; 1.1 μM): 79.4
- Q1 (flow cytometry quadrant) (HCT116 cells; 3.3 μM): 2.37
- Q2 (flow cytometry quadrant) (HCT116 cells; 3.3 μM): 32.3
- Q3 (flow cytometry quadrant) (HCT116 cells; 3.3 μM): 44.6
- Q4 (flow cytometry quadrant) (HCT116 cells; 3.3 μM): 20.7
- apoptosis induced (HCT116 cells; 3.3 μM): over 70%
- Q1 (flow cytometry quadrant) (HCT116 cells; 10 μM): 2.80
- Q2 (flow cytometry quadrant) (HCT116 cells; 10 μM): 57.3
- Q3 (flow cytometry quadrant) (HCT116 cells; 10 μM): 24.9
- Q4 (flow cytometry quadrant) (HCT116 cells; 10 μM): 15.1
- induction of apoptosis (in words) (Jurkat cells [1]): neither Z16 nor SAHA could effectively induce apoptosis
- proportion of cells at G0/G1 phase (Jurkat cells [2]; 0.13 μM): 48.4%
- proportion of cells at G0/G1 phase (Jurkat cells [2]; 0.37 μM): 52.2%
- proportion of cells at G0/G1 phase (Jurkat cells [2]; 1.1 μM): 61%
- proportion of cells at G0/G1 phase (Jurkat cells [2]; 3.3 μM): 68.2%
- lipid peroxidation induced (Jurkat cells [3]): over 40%
- concentration at which increased acetylation of histone H3 started [4]: 40 nM
- intracellular level of IKZF1 (in words) (IKZF1): did not significantly affect
- HDAC6 degradation (in words) (HDAC6): no obvious
- level of Ac-HH3 at 1 μM (in words) [5]: significantly increase
- concentration at which increased acetylation of SMC3 started (acetyl-SMC3 (Ac-SMC3)): around 10 nM
- concentration leading to obvious increased Ac-SMC3 (acetyl-SMC3 (Ac-SMC3)): 0.01 µM
- STAT3 degradation (in words) (STAT3; HCT116 cells): did not induce STAT3 degradation
- STAT3 degradation (in words) (STAT3; Jurkat cells): did not induce STAT3 degradation
